Source: patent publication US20120222139A1, “Cancer Specific Mitotic Network” (THE REGENTS OF THE UNIVERSITY OF CALIFORNIA, priority 2009, published 2012)

Legend:
Format in all cases: cell-based, human
[1] = system: panel of 53 breast cancer cell lines; assay: Cell viability/growth assay and dose response (GI50), CellTiter-Glo; details: for GI50 values in cell lines with a high MNAI as compared to a low MNAI: breast cancer cell lines, FIG. 6; for effectiveness by breast cancer subtype: panel of 50 breast cancer cell lines that included both basal and luminal cell lines
Experimental: Human non-malignant and breast cancer cell lines, established from normal and human breast cancer samples, are publicly available and were used in the development of the mitotic network. The source of these cells includes nearly 55 well-characterized breast cell lines with genomic information (i.e. gene copy numbers of various genes) and gene expression data such as gene signatures characteristic of each cell line. Information that directs optimal incubation conditions are detailed in The cell incubational condition of the cell lines was shown reference (Neve, R. M. et al. Cancer Cell 10, 515-527 (2006).
The inhibitor compounds used were small molecule inhibitors. Theses small-molecule inhibitors for PLK1 (GSK461364), CENPE (GSK923295) and AURKB (GSK1070916) were provided by GlaxoSmithKline Inc. Stock solutions were made at a concentration of 10 mM in DMSO and stored at −20° C. Compounds were diluted (1:5 serial dilution), ranging between 0.0768 nM to 30 μM.
The cell viability and growth assay and dose response (GI50) experiments were conducted following dose-response curves that were determined according to the National Cancer Institute (NCI), National Institute of Health (NIH) guidelines. In brief, cell suspensions were plated into 96-well plates in 100 μl growth media. Inoculates were allowed a pre-incubation period of 24 hours at 37° C. for stabilization. Cells were treated with 9 doses in triplicates for 72 hours with GSK461364 or GSK1070916. Cell proliferation was measured with CellTiter-Glo® Luminescent Cell Viability Assay (Promega, Madison, Wis.). After subtraction of the baseline (the viability of the cells just before treatment, time 0), the absorbance was plotted. Total growth inhibition doses and 50% growth inhibition doses GI50 were calculated by GraphPad Prism4 software (GraphPad Software, Inc., La Jolla, Calif.).
Human non-malignant and breast cancer cell lines have been established from normal and human breast cancer samples. The cell lines described in this study derived from 49 malignant and 4 non-malignant breast tissues and growth conditions for the cell lines have been reported previously This resource consists of nearly 54 well-characterized breast cell lines with information on genomic and gene expression signatures. The cell incubational condition of the cell lines was shown previously by some of the inventors in Neve, R. M. et al. Cancer Cell 10, 515-527 (2006).
The small-molecule inhibitors for PLK1 (GSK461364), CENPE (GSK923295) and AURKB (GSK1070916) were provided by GlaxoSmithKline, Inc. Stock solutions were made at a concentration of 10 mM in DMSO and stored at −20° C. Compounds were diluted (1:5 serial dilution) to produce test drug concentrations ranging from 0.0768 nM to 30 μM.
Dose-response curves were determined according to the National Cancer Institute NIH guidelines. In brief, cell suspensions were aliquoted into 96-well plates in 100 μl growth media. Inoculates were allowed a preincubation period of 24 hours at 37° C. for stabilization. Cells were treated with 9 doses in triplicate for 72 hours with GSK461364 or GSK1070916. Cell proliferation was measured with CellTiter-Glo® Luminescent Cell Viability Assay (Promega, Madison. WI). After subtraction of the baseline (an estimate of the number of the cells just before treatment, time 0), the absorbance was plotted. Total growth inhibition doses and 50% growth inhibition doses GI50 were calculated by GraphPad Prism4 software (GraphPad Software, Inc., La Jolla, Calif.).
The correlation among the cellular GI50 values of GSK461364, GSK1070916 and GSK92325 was examined by Pearson correlation test. Tumor expression profiles were clustered using the mitotic network genes. Kaplan-Meier survival curves were generated for patients stratified into groups of high (upper tertile) and low (lower tertile) MNAI to evaluate differences in disease-free survival (DFS). […]

[2] = system: sensitive (HCC38) or resistant (MDAMB175) breast cancer cell line; assay: Treatment with mitotic apparatus inhibitors alone or in combination of two; details: HCC38 (sensitive) and MDAMB175 (resistant), FIG. 8
Experimental: Dose response to GSK461364, GSK923295 and GSK1070916 was assayed individually or in combination in different breast cancer subtypes. FIG. 8A is a graph of response to single and combination doses of PLK1 and AURKB inhibitors; FIG. 8B is a graph of response to single and combination doses of PLK1 and CENPE inhibitors; and FIG. 8C is a graph of response to single and combination doses of CENPE and AURKB inhibitors.
In that case, combinations of mitotic apparatus inhibitors would not be expected to show additive or synergistic effects. We tested this by treatment of sensitive and resistant breast cancer cell lines with GSK461364 or GSK1070916 or GSK923295 alone and in combination two of them at different doses. […] That being the case, deployment of drugs targeting other genes in the mitotic apparatus network might contribute to development of a mitotic apparatus therapeutic armamentarium that could effectively counter development of drug resistance and provide durable treatments that will be effective against metastasis. Small molecular inhibitors have already been reported as under development for AURKA (MLN8054), CHEK2 (PD-321852). […] Work developing the mitotic network informs that inhibitors of these genes will be preferentially be effective in tumors with high MNAIs and are thus top candidates for drug development.
This was tested by treating a sensitive (HCC38) or resistant (MDAMB175) breast cancer cell line with GSK461364, GSK1070916 and GSK923295 either alone or in combination.

[3] = system: cells with HJURP shRNA; assay: Growth of cells with HJURP shRNA (data not shown)
[4] = system: MDAMB231 breast cancer cells; assay: Radiation sensitivity, high content imaging of cell number and apoptotic cells; details: MDAMB231, 72 hours after X-ray radiation, FIG. 20f
Experimental: MDAMD231 cells are more sensitive to radiation treatment than T47D cells. […] There are more apoptosis in MDAMB231 cells than T47D cells. […] BT20 cells are more sensitive to radiation treatment than MCF10A cells. […] There are more apoptosis in BT20 cells than MCF10A cells.
High content imaging to assess cell number and apoptotic cells. The effects on cell growth and apoptosis were assessed by a Cellomics high-content image screening system (Cellomics, Thermo Fisher Scientific Inc., Pittsburgh, Pa., USA) after breast cancer cells exposed to a single dose of 0 (sham), 1, 2, 4, 6, 8 or 10 Gy X-ray radiation emitted from an irradiator (model 43855F, Faxitron X-ray Corporation, Lincolnshire, Ill., USA). Live cells in 96 well plates with six replicates from each treatment were stained with 1 μmol/L YO-PRO-1 positive cells.
Seventy-two hours after radiation, we measured cell growth and apoptosis using high-content image analysis. […] Similar results were found in additional cell lines BT20 with high levels of HJURP and MCF10A with low levels of HJURP (FIG. 20c, d). Finally we designed […] (shRNA) against HJURP and generated stable transfectants in a human breast cancer cell line (MDAMB231).

[5] = system: HJURP protein in MDAMB231; assay: HJURP protein level by Western blot after HJURP shRNA; details: stable transfectants in MDAMB231, Western blotting, FIG. 20e
Experimental: For Western blots, […] of protein extracts per lane were electrophoresed with denaturing sodium doedecyl sulfate (SDS)-polyacrylamide gels (4% to 12%), transferred to PVDF membranes (Millipore, Temecula, Calif., USA), and incubated with HJURP antibody 1:500 (Rabbit, HPA008436, Sigma-Aldrich, St. Louis, Mo., USA) and actin (goat, sc-1616, Santa Cruz Biotechnology, Santa Cruz, Calif., USA) diluted with blocking buffer (927-40000, LI-COR Biosciences, Lincoln, Nebr., USA) The membranes were washed four times with TBST and treated with 1:10,000 dilution of Alex Fluor 680 donkey anti-rabbit (A10043 Invitrogen, Carlsbad, Calif., USA) and IRDye 800CW conjugated donkey anti-goat (611-731-127, Rockland, Gilbertsville, Pa., USA) to detect HJURP and actin respectively. The signals were detected by infrared imaging (LI-COR Biosciences, Lincoln, Nebr., USA). Images were recorded as TIFF files for quantification.
Protein levels were measured by quantifying infrared imaging recorded from labeled antibodies using Scion Image. For each protein, the blots were made for 7 sets of 11 cell lines, each set including the same pair (SKBR3 and MCF12A) to permit intensity normalization across sets. […]
Seventy-two hours after radiation, we measured cell growth and apoptosis using high-content image analysis. […]

Molecule	GI50 values in cell lines with a high MNAI as compared to a low MNAI [1]	effectiveness by breast cancer subtype [1]	response to combination of compounds against two different mitotic apparatus proteins versus alone [2]	cell growth [3]	sensitivity to radiation [4]	down-regulation of HJURP protein levels [5]
C[C@@H](Oc1cc(-n2cnc3ccc(CN4CCN(C)CC4)cc32)sc1C(N)=O)c1ccccc1C(F)(F)F [GSK461364]	significantly lower in cell lines with a high MNAI	most effective against basal cell breast cancer subtypes	did not increase the response in either cell type			
CC(C)Oc1ccc(C(=O)N[C@H](CNC(=O)CN(C)C)Cc2ccc(-c3cn4cccc([C@H](C)O)c4n3)cc2)cc1Cl [GSK923295]	significantly lower in cell lines with a high MNAI	most effective against basal cell breast cancer subtypes	did not increase the response in either cell type			
CCn1cc(-c2ccnc3[nH]c(-c4cccc(CN(C)C)c4)cc23)c(-c2ccc(NC(=O)N(C)C)cc2)n1 [GSK1070916]	significantly lower in cell lines with a high MNAI	most effective against basal cell breast cancer subtypes	did not increase the response in either cell type			
HJURP shRNA: shRNA against HJURP (SEQ ID NO: 56 and 57) cloned into pSUPER.retro.puro retroviral vector (nucleic acid) sense: GATCCCCGAGCGATTCATCTTCATCATTCAAGAGATGATGAAGATGAATCGCTCTTTTTGGAA antisense: AGCTTTTCCAAAAAGAGCGATTCATCTTCATCATCTCTTGAATGATGAAGATGAATCGCTCGGG				grew slowly	reduced the sensitivity to radiation	75%
